We go through 72 molecules from the RepoRT retention time repository.

The nature of the series: Waters ACQUITY UPLC BEH C18, 100 × 2.1 mm, 1.7 µm, 40 °C, 0.3 to 0.4 mL/min, estimated dead time 0.63 min; A: water + 0.1% formic acid; B: methanol + 0.1% formic acid; gradient (min/%B) 0/0.5 0.1/0.5 10/80 10.1/99.5 12/99.5. The following applies: stereoisomer not certain.

In the case of `COc1cc(-c2[o+]c3cc(O)cc(O)c3cc2OC2OC(CO)C(O)C(O)C2O)cc(O)c1O` (configuration not stated), the LC retention time was 3.21 min.

As to `CC(C)=CCc1c(O)cc2c(c1O)C(=O)CC(c1ccccc1)O2` (configuration not stated), the LC retention time was 7.58 min.

In the case of `CCC1C(=O)OCc2c1cc1n(c2=O)Cc2cc3ccccc3nc2-1` (configuration not stated), the LC retention time is 5.77 min.

In the case of `CC(=O)OC1C(C)OC(OC2C(c3c(O)cc(O)c4c(=O)cc(-c5ccc(O)cc5)oc34)OC(CO)C(O)C2O)C(O)C1O` (configuration not stated), the LC retention time was 5.08 min.

On to `CC1OC(OC2C(c3c(O)cc(O)c4c(=O)cc(-c5ccc(O)cc5)oc34)OC(CO)C(O)C2O)C(O)C(O)C1O` (configuration not stated), for which the LC retention time is 4.61 min.

Turning to `CCCCCC=CCC=CCC=CCCCCC(=O)OCC(O)COP(=O)([O-])OCC[N+](C)(C)C` (configuration not stated), the LC retention time is 8.85 min.

For the molecule `O=C(O)C1OC(Oc2c(-c3ccc(O)c(O)c3)oc3cc(O)cc(O)c3c2=O)C(O)C(O)C1O` (configuration not stated), the LC retention time was 4.01 min.

Regarding `O=C(Cc1c[nH]c2ccccc12)NC(Cc1ccccc1)C(=O)O` (configuration not stated), the LC retention time is 6.34 min.

Consider `COc1cc(-c2oc3cc(O)cc(O)c3c(=O)c2O)cc(O)c1O`, for which the LC retention time is 5.37 min.

For the molecule `COc1ccc(Cc2nccc3cc(OC)c(OC)cc23)cc1OC`, the LC retention time was 4.49 min.

On to `C=CC1C(OC2OC(CO)C(O)C(O)C2O)OC=C(C(=O)OC)C1CC1NCCc2c1[nH]c1ccccc21` (configuration not stated), for which the LC retention time was 4.36 min.

Turning to `CCC1C2CCN3CCC4(C(=C2C(=O)OC)Nc2ccccc24)C13` (configuration not stated), the LC retention time was 4.92 min.

In the case of `O=C(O)C=C(CC(=O)O)C(=O)O`, the LC retention time is 1.61 min.

Consider `CCC1(O)C(=O)OCc2c1cc1n(c2=O)Cc2cc3c([N+](=O)[O-])cccc3nc2-1` (configuration not stated), for which the LC retention time is 5.87 min.

As for `COc1cc(-c2cc(=O)c3c(O)cc(OC4OC(COC(=O)CC(=O)O)C(O)C(O)C4O)cc3o2)ccc1O` (configuration not stated), the LC retention time is 4.8 min.

For the molecule `COc1cc(C=CC(=O)OC2CC(O)(C(=O)O)CC(O)C2O)ccc1O` (configuration not stated), the LC retention time is 3.71 min.

Turning to `CC1OC(OC2C(OC3C(OC4CCC5(C)C(CCC6(C)C5CC=C5C7CC(C)(C)CC(=O)C7(C)CCC56C)C4(C)CO)OC(C(=O)O)C(O)C3O)OC(CO)C(O)C2O)C(O)C(O)C1O` (configuration not stated), the LC retention time was 7.62 min.

As to `CC1(C)C=CC2(C)CCC3(C)C(=CCC4C5(C)CCC(O)C(C)(CO)C5CCC43C)C2C1` (configuration not stated), the LC retention time is 10.4 min.

With `CCOC1OC(=O)c2cc3ccc4c(c3c(-c3ccc5c(c3)OCO5)c21)OCO4` (configuration not stated), the LC retention time was 8.82 min.

`CC(=O)OCC1OC(Oc2ccc3c(=O)c(-c4ccc(O)cc4)coc3c2)C(O)C(O)C1O` (configuration not stated): the LC retention time is 4.57 min.

Take `O=C(O)C(Cc1ccccc1)NC(=O)C1CCCN1` (configuration not stated): the LC retention time is 2.99 min.

As for `CCCC1CCCCN1` (configuration not stated), the LC retention time is 2.78 min.

For `O=C(C=Cc1ccc(O)cc1)NCCc1ccc(O)cc1`, the LC retention time was 5.06 min.

Take `O=C1CC(c2ccc(O)c(O)c2)Oc2cc(OC3OC(CO)C(O)C(O)C3O)cc(O)c21` (configuration not stated): the LC retention time is 4.09 min.

On to `CCN1CC2(COC)C(O)CC(OC)C34C5CC6(O)C(OC)C(O)C(OC(C)=O)(C5C6OC(=O)c5ccccc5)C(C(OC)C23)C14` (configuration not stated), for which the LC retention time was 5.97 min.

`CC12CC3(O)OC(O1)C1(COC(=O)c4ccccc4)C3CC21OC1OC(CO)C(O)C(O)C1O` (configuration not stated): the LC retention time is 3.78 min.

For `CC(C)=CCCC(C)(OC1OC(CO)C(O)C(O)C1O)C1CCC2(C)C1C(O)CC1C3(C)CCC(O)C(C)(C)C3C(OC3OC(CO)C(O)C(O)C3O)CC12C` (configuration not stated), the LC retention time was 4.8 min.

In the case of `COc1cc(C2c3cc4c(cc3C(OC3OC5COC(C)OC5C(O)C3O)C3COC(=O)C23)OCO4)cc(OC)c1O` (configuration not stated), the LC retention time was 5.4 min.

For the molecule `Cc1[nH]ccc2c1[nH]c1cc(=O)ccc12`, the LC retention time was 3.18 min.

As for `CC(C)=CCc1cc(-c2coc3cc(O)ccc3c2=O)ccc1O`, the LC retention time is 7.24 min.

In the case of `CS(=O)CCCCN=C=S` (configuration not stated), the LC retention time is 3.69 min.

For the molecule `CCCCCCCC(O)SCC(NC(=O)CCC(N)C(=O)O)C(=O)NCC(=O)O` (configuration not stated), the LC retention time is 4.58 min.

Turning to `COc1cc(O)c2c(c1)OC(c1ccc(O)c(-c3c(O)cc(O)c4c(=O)cc(-c5ccc(O)cc5)oc34)c1)CC2=O` (configuration not stated), the LC retention time is 5.58 min.

Turning to `C=CCc1ccc(O)c(-c2ccc(O)c(CC=C)c2)c1`, the LC retention time was 8.63 min.

Regarding `C=C1CC23CC4C5C6(C)CC(O)CC57C(C2C(O)C1C(O)C37)N4C6` (configuration not stated), the LC retention time was 3.07 min.

As to `O=c1c(OC2OCC(O)C(O)C2O)c(-c2cc(O)c(O)c(O)c2)oc2cc(O)cc(O)c12` (configuration not stated), the LC retention time was 3.9 min.

Take `COc1ccc(-c2coc3cc(OC4OC(COC(=O)CC(=O)O)C(O)C(O)C4O)c(OC)cc3c2=O)cc1` (configuration not stated): the LC retention time was 5.38 min.

Take `OCC(Cc1cccc(O)c1)C(CO)Cc1cccc(O)c1` (configuration not stated): the LC retention time is 5.26 min.

On to `COc1cc(-c2oc3cc(O)cc(O)c3c(=O)c2OC2OC(COC3OC(C)C(O)C(O)C3O)C(O)C(O)C2O)ccc1O` (configuration not stated), for which the LC retention time was 4.17 min.

Take `C=CC1C(OC2OC(CO)C(O)C(O)C2O)OC=C2C(=O)N3CCc4c([nH]c5ccccc45)C3CC21` (configuration not stated): the LC retention time is 5.56 min.

In the case of `COc1cc(-c2oc3cc(OC4OC(C)C(O)C(O)C4O)cc(O)c3c(=O)c2O)ccc1O` (configuration not stated), the LC retention time was 3.72 min.

`CC1CCC2(NC1)OC1CC3C4CCC5CC(OC6OC(CO)C(OC7OC(CO)C(O)C(OC8OC(O)C(O)C(O)C8O)C7OCC(O)C(O)C(O)C(O)CO)C(O)C6O)CCC5(C)C4CCC3(C)C1C2C` (configuration not stated): the LC retention time is 4.32 min.

For the molecule `COc1cc(-c2[o+]c3cc(O)cc(OC4OC(CO)C(O)C(O)C4O)c3cc2OC2OC(COC3OC(C)C(OC(=O)C=Cc4ccc(O)cc4)C(O)C3O)C(O)C(O)C2O)cc(O)c1O` (configuration not stated), the LC retention time is 3.76 min.

On to `CC(C)C(O)(CC(=O)O)C(=O)O` (configuration not stated), for which the LC retention time is 3.25 min.

Regarding `C=CC12CN(C)C3C4COC(CC41)C1(C(=O)Nc4ccccc41)C32` (configuration not stated), the LC retention time is 3.21 min.

On to `O=C1CC(c2ccc(OC3OC(CO)C(O)C(O)C3O)cc2)Oc2cc(O)ccc21` (configuration not stated), for which the LC retention time was 4.08 min.

For `COc1cc(C2c3cc4c(cc3C(O)C3COC(=O)C23)OCO4)cc(OC)c1OC` (configuration not stated), the LC retention time is 6.26 min.

As for `Nc1[nH]c(=O)[nH]c(=O)c1OC1OC(CO)C(O)C(O)C1OC1OC(CO)C(O)C1O` (configuration not stated), the LC retention time was 2.16 min.

In the case of `CC1OC(OCC2OC(Oc3c(-c4ccc(O)c(O)c4)oc4cc(O)cc(O)c4c3=O)C(O)C(O)C2O)C(O)C(O)C1O` (configuration not stated), the LC retention time was 3.86 min.

In the case of `NCCc1ccc(O)cc1`, the LC retention time is 1.83 min.

As for `COc1c(O)cc(O)c2c(=O)cc(-c3ccccc3)oc12`, the LC retention time is 7.27 min.

`CCCSSCC(NC(=O)CCC(N)C(=O)O)C(=O)NCC(=O)O` (configuration not stated): the LC retention time is 3.78 min.

For `CC(C)=CCCC(C)(OC1OC(COC2OC(CO)C(O)C2O)C(O)C(O)C1O)C1CCC2(C)C1C(O)CC1C3(C)CCC(OC4OC(CO)C(O)C(O)C4OC4OC(CO)C(O)C(O)C4O)C(C)(C)C3CCC12C` (configuration not stated), the LC retention time is 6.01 min.

`CC1=C(CCC(C)COC2OC(CO)C(O)C(O)C2OC2OC(C)C(O)C(O)C2O)OC2CC3C4CC=C5CC(O)CC(OC6OC(CO)C(O)C(O)C6O)C5(C)C4CCC3(C)C12` (configuration not stated): the LC retention time was 5.2 min.

`CC=C1CN2C3CC1C(CO)C2Cc1c3[nH]c2cc(OC)ccc12` (configuration not stated): the LC retention time was 3.68 min.

Regarding `CC(CN)CCC1(O)OC2CC3C4CCC5CC(OC6OC(CO)C(OC7OC(CO)C(O)C(OC8OCC(O)C(O)C8O)C7OC7OC(CO)C(O)C(O)C7O)C(O)C6O)CCC5(C)C4CCC3(C)C2C1C` (configuration not stated), the LC retention time is 4.31 min.

With `CC(C)=CCCC(C)(O)C1CCC2(C)C1C(O)CC1C3(C)CCC(OC4OC(CO)C(O)C(O)C4OC4OC(CO)C(O)C(O)C4O)C(C)(C)C3CCC12C` (configuration not stated), the LC retention time is 8.2 min.

In the case of `CCC1CN2CCc3cc(OC)c(OC)cc3C2CC1CC1NCCc2cc(O)c(OC)cc21` (configuration not stated), the LC retention time is 2.98 min.

Consider `COc1ccc2cc1Oc1ccc(cc1)CC1=NCCc3cc(OC)c(cc31)Oc1c(OC)c(OC)c([O-])c3c1C(C2)[NH+](C)CC3` (configuration not stated), for which the LC retention time is 3.96 min.

For the molecule `Cc1nccc2c1[nH]c1ccccc12`, the LC retention time is 3.7 min.

Consider `Nc1[nH]c(=O)[nH]c(=O)c1OC1OC(CO)C(OC2OC(CO)C(O)C(O)C2O)C(O)C1O` (configuration not stated), for which the LC retention time was 2 min.

For the molecule `O=C(O)c1cc2c(c3c1c([N+](=O)[O-])cc1ccccc13)OCO2`, the LC retention time is 7.55 min.

With `COc1ccc(-c2oc3cc(O)cc(O)c3c(=O)c2O)cc1`, the LC retention time is 5.99 min.

On to `COc1ccc(C2CC(=O)c3c(O)cc(OC4OC(COC5OC(C)C(O)C(O)C5O)C(O)C(O)C4O)cc3O2)cc1O` (configuration not stated), for which the LC retention time is 4.51 min.

In the case of `CCC(C)C(N)C(=O)NC(CCC(=O)O)C(=O)O` (configuration not stated), the LC retention time was 1.98 min.

With `COc1cc(-c2cc(=O)c3c(O)c(C4OC(CO)C(O)C(O)C4OC4OC(CO)C(O)C(O)C4O)c(O)cc3o2)ccc1O` (configuration not stated), the LC retention time was 3.87 min.

As to `C=C(C)C1CNC(C(=O)O)C1CC(=O)O` (configuration not stated), the LC retention time was 2.44 min.

On to `COc1c(C=CC(=O)c2ccc(O)c(O)c2)ccc(O)c1CC=C(C)C`, for which the LC retention time is 7.49 min.

Consider `CC1OC(OC2C(Oc3cc(O)c4c(c3)OC(c3ccc(O)c(O)c3)CC4=O)OC(CO)C(O)C2O)C(O)C(O)C1O` (configuration not stated), for which the LC retention time was 4.04 min.

On to `COc1ccc2cc1Oc1ccc(cc1)CC1c3cc(c(OC)cc3CCN1C)Oc1c(OC)c(OC)cc3c1C(C2)N(C)CC3` (configuration not stated), for which the LC retention time is 4.19 min.

For `O=C(CCc1ccc(O)c(O)c1)NCCCCNCCCNC(=O)CCc1ccc(O)c(O)c1`, the LC retention time is 3.14 min.

`O=c1cc(-c2ccccc2)oc2cc(O)c(O)c(O)c12`: the LC retention time is 6.4 min.
